Measurements published in US20230234942A1, “COMPOUNDS FOR TREATING HUNTINGTON'S DISEASE” (PTC Therapeutics, Inc., priority 2020, published 2023).

Test system: Endogenous Huntingtin Protein
Test: Endogenous Huntingtin Protein Assay (ELISA-based MSD electrochemiluminescence)
Type: cell-based
Conditions: Table 2; MSD plates coated with MW1 (expanded polyglutamine) or MAB2166 capture antibody; "inactive" = result above the detection limit of the assay
Outline: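 MSD electrochemiluminescence sandwich ELISA: capture with MW1 (expanded polyQ) or MAB2166 at 1 µg/mL, samples incubated overnight at 4 °C. Detection by rabbit mAb #56565 then SULFO-TAG anti-rabbit antibody, each 0.25 µg/mL for 1 h at room temperature, read in buffer T on SI 6000 imager.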

Row | Compound | IC50 | IC50 (nM)
1 | C[C@@H]1CN(c2ncc(-c3ccc(-n4nccn4)cc3O)nn2)C[C@H](C)N1 [Cpd 54, 2-{3-[(3R,5S)-3,5-dimethylpiperazin-1-yl]-1,2,4-triazin-6-yl}-5-(2H-1,2,3-triazol-2-yl)phenol] | 440 nM | –
2 | CC(C)[C@H]1CN(c2ncc(-c3ccc(-c4cnn5ccccc45)cc3O)nn2)CCN1 [Cpd 244, 2-{3-[(3S)-3-(propan-2-yl)piperazin-1-yl]-1,2,4-triazin-6-yl}-5-(pyrazolo[1,5-a]pyridin-3-yl)phenol] | 382 nM | –
3 | CC(C)[C@H]1CN(c2ncc(-c3ccc(-c4ncns4)cc3O)nn2)C[C@@H](C)N1 (single isomer, unassigned) [Cpd 268, 2-{3-[(3R,5S)-3-methyl-5-(propan-2-yl)piperazin-1-yl]-1,2,4-triazin-6-yl}-5-(1,2,4-thiadiazol-5-yl)phenol or 2-{3-[(3S,5R)-3-methyl-5-(propan-2-yl)piperazin-1-yl]-1,2,4-triazin-6-yl}-5-(1,2,4-thiadiazol-5-yl)phenol] | 124 nM | –
4 | C[C@@H]1CN(c2ncc(-c3ccc(-c4ccc5nc(C(F)(F)F)cn5n4)cc3O)nn2)C[C@H](C)N1 [Cpd 118, 2-{3-[(3R,5S)-3,5-dimethylpiperazin-1-yl]-1,2,4-triazin-6-yl)-5-[2-(trifluoromethyl)imidazo[1,2-b]pyridazin-6-yl]phenol] | – | inactive
5 | Cc1ccc2c(ccn2-c2ccc(-c3cnc(N4CCN[C@@H](C(C)C)C4)nn3)c(O)c2)n1 [Cpd 159, 5-(5-methyl-1H-pyrrolo[3,2-b]pyridin-1-yl)-2-{3-[(3S)-3-(propan-2-yl)piperazin-1-yl]-1,2,4-triazin-6-yl}phenol] | 62.2 nM | –
6 | 2-{3-[(3S,5R)-3-tert-butyl-5-methylpiperazin-1-yl]-1,2,4-triazin-6-yl}-5-(1,2,4-thiadiazol-3-yl)phenol [Cpd 254] | 556 nM | –
7 | Oc1cc(-c2cn[nH]c2)ccc1-c1cnc(N2CCNC(CC(F)(F)F)C2)nn1 (centres unmarked) [Cpd 146, 5-(1H-pyrazol-4-yl)-2-{3-[3-(2,2,2-trifluoroethyl)piperazin-1-yl]-1,2,4-triazin-6-yl}phenol] | 539 nM | –
8 | Oc1cc(-c2ccncc2F)ccc1-c1cnc(N2CCN[C@@H](C3CC3)C2)nn1 [Cpd 178, 2-{3-[(3S)-3-cyclopropylpiperazin-1-yl]-1,2,4-triazin-6-yl}-5-(3-fluoropyridin-4-yl)phenol] | 300 nM | –
9 | CC(C)[C@H]1CN(c2ncc(-c3ccc(-c4nccs4)cc3O)nn2)CCN1 [Cpd 185, 2-{3-[(3S)-3-(propan-2-yl)piperazin-1-yl]-1,2,4-triazin-6-yl}-5-(1,3-thiazol-2-yl)phenol] | 158 nM | –
10 | C[C@@H]1CN(c2ncc(-c3ccc(-n4nccn4)cc3O)nn2)C[C@H](C)N1C [Cpd 52, 5-(2H-1,2,3-triazol-2-yl)-2-{3-[(3R,5S)-3,4,5-trimethylpiperazin-1-yl]-1,2,4-triazin-6-yl}phenol] | 336 nM | –
11 | CC(C)[C@H]1CN(c2ncc(-c3ccc(-c4ncn(C)n4)cc3O)nn2)CCN1 [Cpd 259, 5-(1-methyl-1H-1,2,4-triazol-3-yl)-2-{3-[(3S)-3-(propan-2-yl)piperazin-1-yl]-1,2,4-triazin-6-yl}phenol] | 338 nM | –
12 | Cc1nc2n(n1)CCN(c1ccc(-c3cnc(N4CCN[C@@H](C(C)C)C4)nn3)c(O)c1)C2 [Cpd 274, 5-(2-methyl-5,6-dihydro[1,2,4]triazolo[1,5-a]pyrazin-7(8H)-yl)-2-{3-[(3S)-3-(propan-2-yl)piperazin-1-yl]-1,2,4-triazin-6-yl}phenol] | 291 nM | –
13 | Cc1cnc2nc(-c3ccc(-c4cnc(N5C[C@@H](C)N[C@@H](C)C5)nn4)c(O)c3)sc2n1 [Cpd 119, 2-{3-[(3R,5S)-3,5-dimethylpiperazin-1-yl]-1,2,4-triazin-6-yl}-5-(6-methyl[1,3]thiazolo[4,5-b]pyrazin-2-yl)phenol] | – | inactive
14 | Oc1cc(-c2cn[nH]c2)ccc1-c1cnc(N2CCNC3(CCC3)C2)nn1 [Cpd 50, 2-[3-(5,8-diazaspiro[3.5]nonan-8-yl)-1,2,4-triazin-6-yl]-5-(1H-pyrazol-4-yl)phenol] | 312 nM | –
15 | CC1CN(c2ncc(-c3ccc(-c4cn[nH]c4)cc3O)nn2)CCN1 (centres unmarked) [Cpd 42, 2-[3-(3-methylpiperazin-1-yl)-1,2,4-triazin-6-yl]-5-(1H-pyrazol-4-yl)phenol] | 111 nM | –
16 | C[C@H]1CN(c2ncc(-c3ccc(-c4cn[nH]c4)cc3O)nn2)[C@@H](C)CN1 [Cpd 176, 2-{3-[(2S,5S)-2,5-dimethylpiperazin-1-yl]-1,2,4-triazin-6-yl}-5-(1H-pyrazol-4-yl)phenol] | 619 nM | –
17 | CC(C)[C@H]1CN(c2ncc(-c3ccc(-c4ccc5nsnc5c4)cc3O)nn2)CCN1 [Cpd 263, 5-(2,1,3-benzothiadiazol-5-yl)-2-{3-[(3S)-3-(propan-2-yl)piperazin-1-yl]-1,2,4-triazin-6-yl]phenol] | 214 nM | –
18 | Oc1cc(-c2cn[nH]c2)ccc1-c1cnc(N2CCN(C3CC3)CC2)nn1 [Cpd 63, 2-[3-(4-cyclopropylpiperazin-1-yl)-1,2,4-triazin-6-yl]-5-(1H-pyrazol-4-yl)phenol] | – | inactive

Next, values leading:

Row | IC50 | IC50 (nM) | Compound
19 | 5.7 nM | – | Cn1nc2cc(-c3ccc(-c4cnc(N5CCN[C@@H](C6(C)CC6)C5)nn4)c(O)c3)cnc2n1 [Cpd 241, 2-{3-[(3S)-3-(1-methylcyclopropyl)piperazin-1-yl]-1,2,4-triazin-6-yl}-5-(2-methyl-2H-[1,2,3]triazolo[4,5-b]pyridin-6-yl)phenol]
20 | 13.4 nM | – | C[C@@H]1CN(c2ncc(-c3ccc(-c4cn[nH]c4)cc3O)nn2)C[C@H](C2CC2)N1 [Cpd 225, 2-{3-[(3S,5R)-3-cyclopropyl-5-methylpiperazin-1-yl]-1,2,4-triazin-6-yl}-5-(1H-pyrazol-4-yl)phenol]
21 | 9.6 nM | – | Oc1cc(-n2nccn2)ccc1-c1cnc(N2CCN[C@@H](C3CC3)C2)nn1 [Cpd 11, 2-{3-[(3S)-3-cyclopropylpiperazin-1-yl]-1,2,4-triazin-6-yl}-5-(2H-1,2,3-triazol-2-yl)phenol]
22 | 3.6 nM | – | Cc1cn2nc(-c3ccc(-c4cnc(N5C[C@@H](C)N[C@@H](C)C5)nn4)c(O)c3)cc(C)c2n1 [Cpd 69, 5-(2,8-dimethylimidazo[1,2-b]pyridazin-6-yl)-2-{3-[(3R,5S)-3,5-dimethylpiperazin-1-yl]-1,2,4-triazin-6-yl}phenol]
23 | 3.8 nM | – | COc1cc(-c2ccc(-c3cnc(N4CCN[C@@H](C(C)C)C4)nn3)c(O)c2)nn2nc(C)nc12 [Cpd 70, 5-(8-methoxy-2-methyl[1,2,4]triazolo[1,5-b]pyridazin-6-yl)-2-{3-[(3S)-3-(propan-2-yl)piperazin-1-yl]-1,2,4-triazin-6-yl}phenol]
24 | 42.5 nM | – | Oc1cc(-c2cn[nH]c2)ccc1-c1cnc(N2CCN3CCCCC3C2)nn1 (centres unmarked) [Cpd 203, 2-[3-(octahydro-2H-pyrido[1,2-a]pyrazin-2-yl)-1,2,4-triazin-6-yl]-5-(1H-pyrazol-4-yl)phenol]
25 | 22.1 nM | – | Cc1nc2c(C3CC3)nc(-c3ccc(-c4cnc(N5C[C@@H](C)N[C@@H](C)C5)nn4)c(O)c3)cn2n1 [Cpd 109, 5-(8-cyclopropyl-2-methyl[1,2,4]triazolo[1,5-a]pyrazin-6-yl)-2-{3-[(3R,5S)-3,5-dimethylpiperazin-1-yl]-1,2,4-triazin-6-yl}phenol]
26 | 8.6 nM | – | Cc1cn2cc(-c3ccc(-c4cnc(N5CCN[C@@H](C(C)C)C5)nn4)c(O)c3)nc(C)c2n1 [Cpd 96, 5-(2,8-dimethylimidazo[1,2-a]pyrazin-6-yl)-2-{3-[(3S)-3-(propan-2-yl)piperazin-1-yl]-1,2,4-triazin-6-yl]phenol]
27 | 41.2 nM | – | Cc1cn2cc(-c3cnc(-c4cnc(N5CCN(C)CC5)nn4)c(O)c3)cc(F)c2n1 [Cpd 122, 5-(8-fluoro-2-methylimidazo[1,2-a]pyridin-6-yl)-2-[3-(4-methylpiperazin-1-yl)-1,2,4-triazin-6-yl]pyridin-3-ol]
28 | 8.7 nM | – | CC[C@H]1CN(c2ncc(-c3ccc(-c4cc(OC)ncn4)cc3O)nn2)C[C@@H](C)N1 [Cpd 234, 2-{3-[(3S,5R)-3-ethyl-5-methylpiperazin-1-yl]-1,2,4-triazin-6-yl}-5-(6-methoxypyrimidin-4-yl)phenol]
29 | 13.4 nM | – | CC(C)[C@H]1CN(c2ncc(-c3ccc(-c4ccc5nccn5n4)cc3O)nn2)CCN1 [Cpd 102, 5-(imidazo[1,2-b]pyridazin-6-yl)-2-{3-[(3S)-3-(propan-2-yl)piperazin-1-yl]-1,2,4-triazin-6-yl}phenol]
30 | 29 nM | – | Oc1cc(-c2ccncc2)ccc1-c1cnc(N2CCN[C@@H](C3CC3)C2)nn1 [Cpd 177, 2-{3-[(3S)-3-cyclopropylpiperazin-1-yl]-1,2,4-triazin-6-yl}-5-(pyridin-4-yl)phenol]
31 | 1.7 nM | – | Cn1nc2cc(-c3ccc(-c4cnc(N5CCN[C@@H](C6CC6)C5)nn4)c(O)c3)cnc2n1 [Cpd 168, 2-{3-[(3S)-3-cyclopropylpiperazin-1-yl]-1,2,4-triazin-6-yl}-5-(2-methyl-2H-[1,2,3]triazolo[4,5-b]pyridin-6-yl)phenol]
32 | 8.3 nM | – | Cc1cn2cc(-c3ccc(-c4cnc(N5C[C@@H](C)N(C)[C@@H](C)C5)nn4)c(O)c3)cc(F)c2n1 [Cpd 94, 5-(8-fluoro-2-methylimidazo[1,2-a]pyridin-6-yl)-2-{3-[(3R,5S)-3,4,5-trimethylpiperazin-1-yl]-1,2,4-triazin-6-yl}phenol]
33 | 8.7 nM | – | [2H]C([2H])([2H])Oc1cc(-c2ccc(-c3cnc(N4CCNC(C(C)(C)O)C4)nn3)c(O)c2)ncn1 (centres unmarked) [Cpd 8, 2-{3-[3-(2-hydroxypropan-2-yl)piperazin-1-yl]-1,2,4-triazin-6-yl}-5-{6-[(^2H3)methyloxy]pyrimidin-4-yl}phenol]
34 | 4.2 nM | – | Oc1cc(-c2c[nH]nc2Cl)ccc1-c1cnc(N2CCN[C@@H](C3CC3)C2)nn1 [Cpd 163, 5-(3-chloro-1H-pyrazol-4-yl)-2-{3-[(3S)-3-cyclopropylpiperazin-1-yl]-1,2,4-triazin-6-yl}phenol]
35 | 47.7 nM | – | Oc1cc(-c2cn[nH]c2)ccc1-c1cnc(N2CCNC(C3CC3(F)F)C2)nn1 (centres unmarked) [Cpd 36, 2-{3-[3-(2,2-dilluorocyclopropyl)piperazin-1-yl]-1,2,4-triazin-6-yl}-5-(1H-pyrazol-4-yl)phenol]
